Results: patent US20250368628A1, “METHODS AND COMPOUNDS FOR MODULATING INHERITED GENETIC DISEASES” (Design Therapeutics, Inc., priority 2022, published 2025)
Where two headings read alike, the source gives them in different places.

How the values were obtained:
[1] = tested on: Myotonic Dystrophy 1 affected patient fibroblasts (Coriel GM04602; 1600 CTG repeats); test: DM1 foci reduction assay (EC50 assay; CAG10-Cy3 FISH, foci per nucleus); assay type: cell-based
Method in brief: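 Foci per nucleus counted by 20× imaging of 4 areas per well, after overnight FISH with 5 nM CAG10-Cy3 and DAPI staining of fixed, permeabilized cells. DM1 fibroblasts (GM04602, 1600 CTG) were dosed 48 h at 37 °C, 8 points, 3-fold dilutions, 3 μM top concentration.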

F35T cells = test: Foci reduction in FECD (CAG10-Cy3 FISH, foci per nucleus); assay type: cell-based; conditions: F35T cells, 48 h treatment, foci per nucleus; read-out: FECD EC50, 48 h
Description: F35T cells were cultured in media containing Opti-MEM (ThermoFisher) supplemented with 8% FBS, 20 μg/mL ascorbic acid, […] CaCl2, 0.08% chondroitin sulfate, 1×Pen/Strep, 100 μg/mL bovine pituitary extract, 5 ng/mL epidermal growth factor, and 20 ng/mL nerve growth factor. Throughout the culture, cells were maintained in an incubator at 37° C. and 5% CO2. Media was refreshed every 48 hours. Once cells reached adequate confluency, they were harvested and seeded in 96 well plates with a density of 5000 cells per well in 200 μL of the supplemented Opti-MEM media. Cells were returned to the incubator and left to settle for 24 hours at 37° C. and 5% CO2. Cells were then treated in 8-point dose response with compounds or negative controls and incubated for 48 hours at 37° C. and 5% CO2. After treatment, cells were fixed with 4% PFA for 20 minutes at room temperature, followed by permeabilization with 70% ethanol. Cells were incubated at −20° C. for a minimum of 1 hour and maximum of 72 hours, after which the ethanol was removed, and cells were washed with PBS. Cells were rehydrated with 30% formamide and 2×SSC buffer for 10 minutes at room temperature. Cells were then incubated overnight at 37° C. in the hybridization solution containing 30% formamide, 2×SSC, 55 mg/mL dextran sulfate, 2.75 mg/mL bovine serum albumin, 0.2 μg/mL Herring sperm DNA, 1% vanadyl-ribonucleoside complex, and 0.05% 10 μM CAG10-Cy3 probe. Cells were washed twice with 30% formamide in 2×SSC, incubating the cells while shaking with the second wash at 37° C. and 200 rpm for 60 minutes. Cells were stained with 5 mg/mL DAPI 1:1000 in PBS, incubating at room temperature for 5 minutes. Cells were then washed with PBS and sealed with adhesive foil, with each well containing a final volume of 150 μL PBS. Cells were imaged on a Cytation 5 and analyzed on a foci per nucleus basis.

[2] = Homo sapiens, Fibroblast; DM1 patient fibroblasts, 48 h treatment, foci per nucleus; read-out: DM1 EC50, 48 h
[3] = Homo sapiens, Fibroblast; DM1 patient fibroblasts, foci per nucleus, 48 h treatment; read-out: DM1 EC50, 48 h

Row | Compound | EC50 [1, 2] | EC50 (F35T cells) | EC50 [1, 3]
1 | CCCNC(=O)CCNC(=O)c1nc(NC(=O)c2cc(NC(=O)CCNC(=O)c3nc(NC(=O)CCCNC(=O)c4cc(NC(=O)c5nc(NC(=O)CCNC(=O)c6cc(NC(=O)c7nccn7C)cn6C)cn5C)cn4C)cn3C)cn2C)cn1C [Compound B-1] | 100 to 500 nM | < 100 nM | –
2 | CCOC(=O)CCNC(=O)c1nc(NC(=O)c2cc(NC(=O)CCNC(=O)c3nc(NC(=O)[C@H](N)CCNC(=O)c4cc(NC(=O)c5nc(NC(=O)CCNC(=O)c6cc(NC(=O)c7nccn7C)cn6C)cn5C)cn4C)cn3C)cn2C)cn1C [Compound B-2] | 100 to 500 nM | 100 to 500 nM | –
3 | CCCNC(=O)CCNC(=O)c1nc(NC(=O)c2cc(NC(=O)CCNC(=O)c3nc(NC(=O)[C@H](N)CCNC(=O)c4cc(NC(=O)c5nc(NC(=O)CCNC(=O)c6cc(NC(=O)c7nccn7C)cn6C)cn5C)cn4C)cn3C)cn2C)cn1C [Compound B-3, N-(5-{[(3R)-3-amino-3-[(1-methyl-2-{[2-({1-methyl-5-[(1-methyl-2-{[2-(propylcarbamoyl)ethyl]carbamoyl}imidazol-4-yl)carbamoyl]pyrrol-3-yl}carbamoyl)ethyl]carbamoyl}imidazol-4-yl)carbamoyl]propyl]carbamoyl}-1-methylpyrrol-3-yl)-1-methyl-4-(3-{[1-methyl-4-(1-methylimidazole-2-amido)pyrrol-2-yl]formamido}propanamido)imidazole-2-carboxamide] | < 100 nM | 500 to 1000 nM | –
4 | CCOC(=O)CCNC(=O)c1nc(NC(=O)c2cc(NC(=O)CCNC(=O)c3nc(NC(=O)[C@@H](CCNC(=O)c4cc(NC(=O)c5nc(NC(=O)CCNC(=O)c6cc(NC(=O)c7nccn7C)cn6C)cn5C)cn4C)NC(C)=O)cn3C)cn2C)cn1C [Compound B-4] | 100 to 500 nM | 100 to 500 nM | –
5 | CCCNC(=O)CCNC(=O)c1nc(NC(=O)c2cc(NC(=O)CCNC(=O)c3nc(NC(=O)[C@@H](CCNC(=O)c4cc(NC(=O)c5nc(NC(=O)CCNC(=O)c6cc(NC(=O)c7nccn7C)cn6C)cn5C)cn4C)NC(C)=O)cn3C)cn2C)cn1C [Compound B-5] | < 100 nM | 100 to 500 nM | –
6 | Cn1cc(NC(=O)c2nc(NC(=O)CCNC(=O)c3cc(NC(=O)c4nc(NC(=O)[C@H](N)CCNC(=O)c5cc(NC(=O)c6nc(NC(=O)CCNC(=O)c7cc(NC(=O)c8nccn8C)cn7C)cn6C)cn5C)cn4C)cn3C)cn2C)cc1C(=O)NCCO [Compound B-8] | 500 to 1000 nM | > 1000 nM | –
7 | CCCNC(=O)c1cc(NC(=O)c2nc(NC(=O)CCNC(=O)c3cc(NC(=O)c4nc(NC(=O)CCCNC(=O)c5cc(NC(=O)c6nc(NC(=O)CCNC(=O)c7cc(NC(=O)c8nccn8C)cn7C)cn6C)cn5C)cn4C)cn3C)cn2C)cn1C [Compound B-9] | > 1000 nM | < 100 nM | –
8 | CCCNC(=O)CCNC(=O)c1cc(NC(=O)c2nc(NC(=O)CCNC(=O)c3cc(NC(=O)c4nc(NC(=O)CCCNC(=O)c5cc(NC(=O)c6nc(NC(=O)CCNC(=O)c7cc(NC(=O)c8nccn8C)cn7C)cn6C)cn5C)cn4C)cn3C)cn2C)cn1C [Compound B-10] | > 1000 nM | < 100 nM | –
9 | CCCNC(=O)CCNC(=O)c1nc(NC(=O)c2cc(NC(=O)CCNC(=O)c3nc(NC(=O)CCCCNC(=O)c4cc(NC(=O)c5nc(NC(=O)CCNC(=O)c6cc(NC(=O)c7nccn7C)cn6C)cn5C)cn4C)cn3C)cn2C)cn1C [Compound B-317] | > 1000 nM | – | –
10 | Cn1cc(NC(=O)c2nc(NC(=O)CCNC(=O)c3cc(NC(=O)c4nccn4C)cn3C)cn2C)cc1C(=O)NCCCC(=O)Nc1cn(C)c(C(=O)NCCC(=O)Nc2cc(C(=O)Nc3cn(C)c(C(=O)NCCC(=O)NCCCCCN4CCC(C#CC#CC5CCNCC5)CC4)n3)n(C)c2)n1 [Compound B-336] | > 1000 nM | – | –
11 | Cn1cc(NC(=O)c2nc(NC(=O)CCNC(=O)c3cc(NC(=O)c4nccn4C)cn3C)cn2C)cc1C(=O)NCCCC(=O)Nc1cn(C)c(C(=O)NCCC(=O)Nc2cc(C(=O)Nc3cn(C)c(C(=O)NCCCCCCCNC(=O)c4cccc(C(=O)OC(C)(C)C)c4)n3)n(C)c2)n1 [Compound B-338] | > 1000 nM | – | –
12 | COC(=O)c1cccc(OCCOCCOCCNC(=O)c2nc(NC(=O)c3cc(NC(=O)CCNC(=O)c4nc(NC(=O)CCCNC(=O)c5cc(NC(=O)c6nc(NC(=O)CCNC(=O)c7cc(NC(=O)c8nccn8C)cn7C)cn6C)cn5C)cn4C)cn3C)cn2C)c1 [Compound B-339] | 500 to 1000 nM | – | –
13 | COC(=O)c1cccc(CCCCCN(C)CCCNC(=O)c2nc(NC(=O)c3cc(NC(=O)CCNC(=O)c4nc(NC(=O)CCCNC(=O)c5cc(NC(=O)c6nc(NC(=O)CCNC(=O)c7cc(NC(=O)c8nccn8C)cn7C)cn6C)cn5C)cn4C)cn3C)cn2C)c1 [Compound B-340] | < 100 nM | – | –
14 | COC(=O)c1cncc(OCCOCCOCCNC(=O)c2nc(NC(=O)c3cc(NC(=O)CCNC(=O)c4nc(NC(=O)CCCNC(=O)c5cc(NC(=O)c6nc(NC(=O)CCNC(=O)c7cc(NC(=O)c8nccn8C)cn7C)cn6C)cn5C)cn4C)cn3C)cn2C)c1 [Compound B-342] | 100 to 500 nM | – | –
15 | CCN(CC)CCCC[C@H](NC(=O)c1cccc(C(=O)OC(C)(C)C)c1)C(=O)NCCOCCOCCOCCOCCOCCNC(=O)c1nc(NC(=O)c2cc(NC(=O)CCNC(=O)c3nc(NC(=O)CCCNC(=O)c4cc(NC(=O)c5nc(NC(=O)CCNC(=O)c6cc(NC(=O)c7nccn7C)cn6C)cn5C)cn4C)cn3C)cn2C)cn1C [Compound B-344] | 500 to 1000 nM | – | –
16 | CCN(CC)CCCC[C@H](NC(=O)c1cccc(C(=O)OC(C)(C)C)c1)C(=O)NCCOCCOCCOCCNC(=O)c1nc(NC(=O)c2cc(NC(=O)CCNC(=O)c3nc(NC(=O)CCCNC(=O)c4cc(NC(=O)c5nc(NC(=O)CCNC(=O)c6cc(NC(=O)c7nccn7C)cn6C)cn5C)cn4C)cn3C)cn2C)cn1C [Compound B-353] | 100 to 500 nM | – | –
17 | CCN(CC)CCCC[C@H](NC(=O)c1cccc(C(=O)OC(C)(C)C)c1)C(=O)NCCOCCOCCOCCNC(=O)CCNC(=O)c1nc(NC(=O)c2cc(NC(=O)CCNC(=O)c3nc(NC(=O)CCCNC(=O)c4cc(NC(=O)c5nc(NC(=O)CCNC(=O)c6cc(NC(=O)c7nccn7C)cn6C)cn5C)cn4C)cn3C)cn2C)cn1C [Compound B-355] | 100 to 500 nM | – | –
18 | CN(CCCNC(=O)OC(C)(C)C)CCCNC(=O)c1cc(NC(=O)CCNC(=O)c2nc(NC(=O)CCCNC(=O)c3cc(NC(=O)c4nc(NC(=O)CCNC(=O)c5cc(NC(=O)c6nccn6C)cn5C)cn4C)cn3CCCCCCN=[N+]=[N-])cn2C)cn1C [Compound B-357] | > 1000 nM | – | –
19 | Cn1cc(NC(=O)c2nc(NC(=O)CCNC(=O)c3cc(NC(=O)c4nccn4C)cn3C)cn2C)cc1C(=O)NCCCC(=O)Nc1cn(C)c(C(=O)NCCC(=O)Nc2cc(C(=O)Nc3cn(C)c(C(=O)NCCCN4CCC(C#CC#CC5CCN(C(=O)OC(C)(C)C)CC5)CC4)n3)n(C)c2)n1 [Compound B-360] | < 100 nM | – | –
20 | CN(C)CCCCNC(=O)c1nc(NC(=O)c2cc(NC(=O)CCNC(=O)c3nc(NC(=O)CC4(CNC(=O)c5cc(NC(=O)c6nc(NC(=O)CCNC(=O)c7cc(NC(=O)c8nccn8C)cn7C)cn6C)cn5C)CC4)cn3C)cn2C)cn1C [Compound B-434] | – | – | < 100 nM
21 | CCCNC(=O)c1nc(NC(=O)c2cc(NC(=O)CCNC(=O)c3nc(NC(=O)CC4(CNC(=O)c5cc(NC(=O)c6nc(NC(=O)CCNC(=O)c7cc(NC(=O)c8nccn8C)cn7C)cn6C)cn5C)CC4)cn3C)cn2C)cn1C [Compound B-435, 1-methyl-4-(3-{[1-methyl-4-(1-methylimidazole-2-amido)pyrrol-2-yl]formamido}propanamido)-N-[1-methyl-5-({[1-({[1-methyl-2-({2-[(1-methyl-5-{[1-methyl-2-(propylcarbamoyl)imidazol-4-yl]carbamoyl}pyrrol-3-yl)carbamoyl]ethyl}carbamoyl)imidazol-4-yl]carbamoyl}methyl)cyclopropyl]methyl}carbamoyl)pyrrol-3-yl]imidazole-2-carboxamide] | – | – | < 100 nM
22 | CCn1cc(NC(=O)c2nc(NC(=O)CCNC(=O)c3cc(NC(=O)c4nccn4C)cn3C)cn2C)cc1C(=O)NCC1(CC(=O)Nc2cn(C)c(C(=O)NCCC(=O)Nc3cc(C(=O)Nc4cn(C)c(C(=O)NCCCCN(C)C)n4)n(C)c3)n2)CC1 [Compound B-436] | – | – | < 100 nM
23 | CCCNC(=O)c1nc(NC(=O)c2cc(NC(=O)CCNC(=O)c3nc(NC(=O)CC4(CNC(=O)c5cc(NC(=O)c6nc(NC(=O)CCNC(=O)c7cc(NC(=O)c8nccn8CC(F)(F)F)cn7C)cn6C)cn5C)CNC4)cn3C)cn2C)cn1C [Compound B-440] | – | – | 100 to 500 nM
24 | CC(C)n1cc(NC(=O)c2nc(NC(=O)CCNC(=O)c3cc(NC(=O)c4nccn4C)cn3C)cn2C)cc1C(=O)NCC1(CC(=O)Nc2cn(C)c(C(=O)NCCC(=O)Nc3cc(C(=O)Nc4cn(C)c(C(=O)NCCCCN(C)C)n4)n(C)c3)n2)CC1 [Compound B-441] | – | – | < 100 nM
